# Data from the supplement of paper PMC9663587.
# Assays:
# [1] = compound: CCCCOc1c(C(=O)c2c(F)cc(C)cc2F)c[nH]c2nncc1-2
# [2] = compound: CCNC(=O)c1noc(-c2cc(C(C)C)c(O)cc2O)c1-c1ccc(CN2CCOCC2)cc1 [Luminespib/NVP-AUY922]
# [3] = compound: CN(C)C/C=C/C(=O)NC1=CC=C(C=C1)C(=O)NC2=CC=CC(=C2)NC3=NC=NC(=C3)C4=CNC5=CC=CC=C54 [THZ-P1-2]
# [4] = compound: CN(C)C/C=C/C(=O)Nc1ccc(O[C@@H]2CCC[C@@H](Nc3ncc(Cl)c(-c4c[nH]c5ccccc45)n3)C2)cc1 [BSJ-01-175]
# [5] = compound: CN1CCN(CCOc2cc(OC3CCOCC3)c3c(Nc4c(Cl)ccc5c4OCO5)ncnc3c2)CC1 [Saracatinib/AZD0530]
# [6] = compound: Cc1cc(Nc2ncc(Cl)c(Nc3ccccc3S(=O)(=O)C(C)C)n2)c(OC(C)C)cc1C1CCNCC1 [Ceritinib/LDK378]
# [7] = compound: C=CC(=O)Nc1ccc(C(=O)Nc2[nH]nc3c2CN(C(=O)N[C@H](CN(C)C)c2ccccc2)C3(C)C)cc1 [YKL-5-124]; assay: increase in dead-cell fraction, 72 h; higher = more death;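 note: breast cancer cell lines in 384-well plates, stained with Hoechst plus LIVE/DEAD far red dye and imaged, cells above an LDR intensity threshold counted dead, Hoechst-negative corpses included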
# [8] = compound: CC(=O)c1c(C)c2cnc(Nc3ccc(N4CCN(CCOCCOCCOCCNC(=O)COc5cccc6c5C(=O)N(C5CCC(=O)NC5=O)C6=O)CC4)cn3)nc2n(C2CCCC2)c1=O [BSJ-03-123]; assay: as above
# [9] = compound: CC(=O)c1c(C)c2cnc(Nc3ccc(N4CCNCC4)cn3)nc2n(C2CCCC2)c1=O; assay: as above
# [10] = compound: CCN1CCN(Cc2ccc(Nc3ncc(F)c(-c4cc(F)c5nc(C)n(C(C)C)c5c4)n3)nc2)CC1; assay: as above
# [11] = compound: CCOc1cc2ncc(C#N)c(Nc3ccc(OCc4ccccn4)c(Cl)c3)c2cc1NC(=O)/C=C/CN(C)C [Neratinib/HKI272]; assay: as above
# [12] = compound: CCc1cnn2c(NCc3ccc[n+]([O-])c3)cc(N3CCCC[C@H]3CCO)nc12; assay: as above
# [13] = compound: CN(C)C(=O)c1cc2cnc(Nc3ccc(N4CCNCC4)cn3)nc2n1C1CCCC1 [LEE011/Ribociclib]; assay: as above
# [14] = compound: CN(C)C/C=C/C(=O)Nc1ccc(C(=O)N2CCC[C@@H](Nc3ncc(Cl)c(-c4c[nH]c5ccccc45)n3)C2)cc1 [THZ531]; assay: as above
# [15] = compound: CN(C)C/C=C/C(=O)Nc1ccc(C(=O)Nc2cccc(Nc3ncc(Cl)c(-c4c[nH]c5ccccc45)n3)c2)cc1 [THZ1]; assay: as above
# [16] = compound: CN1CC[C@H](c2c(O)cc(O)c3c(=O)cc(-c4ccccc4Cl)oc23)[C@H](O)C1 [Flavopiridol]; assay: as above
# 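Throughout, for GR50, 72 h: breast cancer and non-malignant breast epithelial cell lines, Deep Dye Drop or Dye Drop imaging, nine half-log doses, GR normalized to time-zero plates and DMSO-only controls.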
cell line,measurement,setting,value
MCF10A,"GR50, 72 h",[1],0.504 µM
same,"GR50, 72 h",[2],0.00762 µM
same,"GR50, 72 h",[3],7 µM
same,"GR50, 72 h",[4],1.46 µM
same,"GR50, 72 h",[5],4.83 µM
same,"GR50, 72 h",[6],2.99 µM
same,increase in dead-cell fraction,[7]; 0.001 µM,0.0412
same,increase in dead-cell fraction,[7]; 0.003162 µM,0.118
same,increase in dead-cell fraction,[7]; 0.01 µM,0.138
same,increase in dead-cell fraction,[7]; 0.03162 µM,0.146
same,increase in dead-cell fraction,[7]; 0.1 µM,0.116
same,increase in dead-cell fraction,[7]; 0.3162 µM,0.149
same,increase in dead-cell fraction,[7]; 1 µM,0.159
same,increase in dead-cell fraction,[7]; 3.162 µM,0.118
same,increase in dead-cell fraction,[7]; 10 µM,0.167
same,increase in dead-cell fraction,[8]; 0.001 µM,0.0008
same,increase in dead-cell fraction,[8]; 0.003162 µM,-0.0013
same,increase in dead-cell fraction,[8]; 0.01 µM,-0.0008
same,increase in dead-cell fraction,[8]; 0.03162 µM,0.0005
same,increase in dead-cell fraction,[8]; 0.1 µM,0.0018
same,increase in dead-cell fraction,[8]; 0.3162 µM,-0.0009
same,increase in dead-cell fraction,[8]; 1 µM,0.0005
same,increase in dead-cell fraction,[8]; 3.162 µM,0.0017
same,increase in dead-cell fraction,[8]; 10 µM,0.153
same,increase in dead-cell fraction,[9]; 0.0003162 µM,0.0006
same,increase in dead-cell fraction,[9]; 0.001 µM,0.0003
same,increase in dead-cell fraction,[9]; 0.003162 µM,-0.0024
same,increase in dead-cell fraction,[9]; 0.01 µM,-0.0041
same,increase in dead-cell fraction,[9]; 0.03162 µM,-0.0059
same,increase in dead-cell fraction,[9]; 0.1 µM,-0.0084
same,increase in dead-cell fraction,[9]; 0.3162 µM,-0.0088
same,increase in dead-cell fraction,[9]; 1 µM,-0.0079
same,increase in dead-cell fraction,[9]; 3.162 µM,-0.005
same,increase in dead-cell fraction,[10]; 0.001 µM,-0.0006
same,increase in dead-cell fraction,[10]; 0.003162 µM,-0.0032
same,increase in dead-cell fraction,[10]; 0.01 µM,-0.0061
same,increase in dead-cell fraction,[10]; 0.03162 µM,-0.0084
same,increase in dead-cell fraction,[10]; 0.1 µM,-0.0079
same,increase in dead-cell fraction,[10]; 0.3162 µM,-0.0081
same,increase in dead-cell fraction,[10]; 1 µM,-0.0035
same,increase in dead-cell fraction,[10]; 3.162 µM,-0.0012
same,increase in dead-cell fraction,[10]; 10 µM,0.0346
same,increase in dead-cell fraction,[11]; 0.0003162 µM,-0.0011
same,increase in dead-cell fraction,[11]; 0.001 µM,-0.0018
same,increase in dead-cell fraction,[11]; 0.003162 µM,-0.0008
same,increase in dead-cell fraction,[11]; 0.01 µM,-0.0018
same,increase in dead-cell fraction,[11]; 0.03162 µM,-0.0064
same,increase in dead-cell fraction,[11]; 0.1 µM,-0.004
same,increase in dead-cell fraction,[11]; 0.3162 µM,0.003
same,increase in dead-cell fraction,[11]; 1 µM,0.0444
same,increase in dead-cell fraction,[11]; 3.162 µM,0.164
same,increase in dead-cell fraction,[12]; 0.0001 µM,0.0013
same,increase in dead-cell fraction,[12]; 0.0003162 µM,0.0005
same,increase in dead-cell fraction,[12]; 0.001 µM,0.0001
same,increase in dead-cell fraction,[12]; 0.003162 µM,0.0053
same,increase in dead-cell fraction,[12]; 0.01 µM,0.0077
same,increase in dead-cell fraction,[12]; 0.03162 µM,0.5
same,increase in dead-cell fraction,[12]; 0.1 µM,0.575
same,increase in dead-cell fraction,[12]; 0.3162 µM,0.559
same,increase in dead-cell fraction,[12]; 1 µM,0.523
same,increase in dead-cell fraction,[13]; 0.001 µM,-0.0014
same,increase in dead-cell fraction,[13]; 0.003162 µM,0.0018
same,increase in dead-cell fraction,[13]; 0.01 µM,-0.0007
same,increase in dead-cell fraction,[13]; 0.03162 µM,-0.0008
same,increase in dead-cell fraction,[13]; 0.1 µM,-0.0006
same,increase in dead-cell fraction,[13]; 0.3162 µM,0.0001
same,increase in dead-cell fraction,[13]; 1 µM,-0.0005
same,increase in dead-cell fraction,[13]; 3.162 µM,-0.0003
same,increase in dead-cell fraction,[13]; 10 µM,0.0032
same,increase in dead-cell fraction,[14]; 0.0001 µM,-0.0006
same,increase in dead-cell fraction,[14]; 0.0003162 µM,-0.0007
same,increase in dead-cell fraction,[14]; 0.001 µM,0.0006
same,increase in dead-cell fraction,[14]; 0.003162 µM,-0.0006
same,increase in dead-cell fraction,[14]; 0.01 µM,-0.0015
same,increase in dead-cell fraction,[14]; 0.03162 µM,0.0007
same,increase in dead-cell fraction,[14]; 0.1 µM,0.0013
same,increase in dead-cell fraction,[14]; 0.3162 µM,0.0057
same,increase in dead-cell fraction,[14]; 1 µM,0.795
same,increase in dead-cell fraction,[15]; 0.0001 µM,-0.0014
same,increase in dead-cell fraction,[15]; 0.0003162 µM,0.0002
same,increase in dead-cell fraction,[15]; 0.001 µM,0.0012
same,increase in dead-cell fraction,[15]; 0.003162 µM,-0.0011
same,increase in dead-cell fraction,[15]; 0.01 µM,-0.0007
same,increase in dead-cell fraction,[15]; 0.03162 µM,0.0074
same,increase in dead-cell fraction,[15]; 0.1 µM,0.0416
same,increase in dead-cell fraction,[15]; 0.3162 µM,0.0884
same,increase in dead-cell fraction,[15]; 1 µM,0.642
same,increase in dead-cell fraction,[16]; 0.0001 µM,0.0016
same,increase in dead-cell fraction,[16]; 0.0003162 µM,0
same,increase in dead-cell fraction,[16]; 0.001 µM,-0.0007
same,increase in dead-cell fraction,[16]; 0.003162 µM,-0.0005
same,increase in dead-cell fraction,[16]; 0.01 µM,0
same,increase in dead-cell fraction,[16]; 0.03162 µM,0.0039
same,increase in dead-cell fraction,[16]; 0.1 µM,0.0255
same,increase in dead-cell fraction,[16]; 0.3162 µM,0.407
same,increase in dead-cell fraction,[16]; 1 µM,0.87
